The results in this text go back to ChEMBL document CHEMBL5370603, “N-(2-Aminophenyl)-benzamide Inhibitors of Class I HDAC Enzymes with Antiproliferative and Antifibrotic Activity” (J Med Chem, 2023).

Chain of Histone deacetylase 2 (Q92769 whole entry): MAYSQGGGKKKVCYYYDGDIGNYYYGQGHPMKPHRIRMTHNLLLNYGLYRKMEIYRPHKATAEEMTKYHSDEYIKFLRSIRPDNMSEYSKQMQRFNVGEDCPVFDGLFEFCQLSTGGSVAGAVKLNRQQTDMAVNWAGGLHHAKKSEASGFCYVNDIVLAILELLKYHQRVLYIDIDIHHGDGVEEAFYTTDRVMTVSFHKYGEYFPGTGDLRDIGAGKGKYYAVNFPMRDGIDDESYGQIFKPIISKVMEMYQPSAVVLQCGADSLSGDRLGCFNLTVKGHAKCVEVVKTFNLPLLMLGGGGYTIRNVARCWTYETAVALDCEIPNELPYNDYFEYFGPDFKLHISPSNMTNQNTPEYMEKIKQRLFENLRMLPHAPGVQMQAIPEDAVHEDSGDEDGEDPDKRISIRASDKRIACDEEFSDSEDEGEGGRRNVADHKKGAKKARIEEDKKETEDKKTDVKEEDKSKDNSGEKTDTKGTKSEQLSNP
Chain of Histone deacetylase 1 (Q13547 whole entry): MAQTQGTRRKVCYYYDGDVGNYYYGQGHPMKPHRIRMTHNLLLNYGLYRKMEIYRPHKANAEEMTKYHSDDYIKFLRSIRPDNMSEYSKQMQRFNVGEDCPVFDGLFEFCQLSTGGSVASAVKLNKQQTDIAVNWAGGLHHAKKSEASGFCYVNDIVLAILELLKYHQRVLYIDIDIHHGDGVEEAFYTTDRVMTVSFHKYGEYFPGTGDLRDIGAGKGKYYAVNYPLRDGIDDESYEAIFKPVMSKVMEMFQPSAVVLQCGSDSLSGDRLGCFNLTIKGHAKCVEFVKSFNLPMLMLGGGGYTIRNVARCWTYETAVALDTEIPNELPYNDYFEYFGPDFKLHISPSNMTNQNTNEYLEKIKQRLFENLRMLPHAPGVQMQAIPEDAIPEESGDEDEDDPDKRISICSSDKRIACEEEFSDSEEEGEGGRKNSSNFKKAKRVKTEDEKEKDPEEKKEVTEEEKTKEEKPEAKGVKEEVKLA
Chain of Histone deacetylase 3 (O15379 whole entry): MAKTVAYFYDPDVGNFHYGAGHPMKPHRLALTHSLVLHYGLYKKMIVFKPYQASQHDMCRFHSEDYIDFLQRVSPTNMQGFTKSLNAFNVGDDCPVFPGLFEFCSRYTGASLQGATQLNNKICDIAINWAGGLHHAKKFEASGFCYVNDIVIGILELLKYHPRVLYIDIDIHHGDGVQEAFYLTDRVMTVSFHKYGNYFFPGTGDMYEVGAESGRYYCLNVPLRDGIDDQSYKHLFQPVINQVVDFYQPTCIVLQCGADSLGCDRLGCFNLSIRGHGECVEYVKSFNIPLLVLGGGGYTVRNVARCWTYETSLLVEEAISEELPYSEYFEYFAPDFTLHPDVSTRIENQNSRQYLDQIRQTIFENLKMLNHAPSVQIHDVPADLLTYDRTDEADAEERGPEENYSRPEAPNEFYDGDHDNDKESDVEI

The first test concerns the target Histone deacetylase 1 (Homo sapiens, UniProt Q13547). As to the kind of experiment: Inhibition of human recombinant HDAC1 using Ac-Leu-Gly-Lys(Ac)-AMC as substrate preincubated with enzyme for 30 mins followed by substrate addition and measured after 90 mins by fluorescence based analysis.
Settings: not given
In the case of `Nc1ccccc1NC(=O)c1ccc(COc2ccc(CNC(=O)[C@@H]3CCCN3C(=O)c3ccccc3)cc2)cc1`, the half-maximal inhibitory concentration (IC50) turned out to be 0.216 µM.

In the case of `NCc1ccc(OCc2ccc(C(=O)Nc3ccccc3N)cc2)cc1`, the 50% inhibitory concentration (IC50) amounted to 0.1 µM.

As for `Nc1ccccc1NC(=O)c1ccc(COc2ccc(CNC(=O)[C@@H]3CCCN3)cc2)cc1`, the IC50 came out at 0.055 µM.

`Nc1ccccc1NC(=O)c1ccc(COc2ccc(CNC(=O)[C@@H]3CCCN3Cc3ccc(F)cc3)cc2)cc1`: the IC50 was 0.13 µM.

`Nc1ccccc1NC(=O)c1ccc(COc2ccc(CN3C(=O)CC[C@H]3CC(=O)NCc3ccccc3)cc2)cc1`: the IC50 was determined as 0.084 µM.

For `O=C(O)c1ccc(COc2ccc(CNC(=O)[C@@H]3CCCN3Cc3ccccc3)cc2)cc1`, the IC50 is above 10 µM.

`Nc1ccccc1NC(=O)c1ccc(COc2ccc(CNC(=O)c3cc4ccccc4[nH]3)cc2)cc1`: the half-maximal inhibitory concentration (IC50) was 0.182 µM.

Consider `Nc1ccccc1NC(=O)c1ccc(COc2ccc(CNC(=O)[C@H]3CCCN3Cc3ccccc3)cc2)cc1`, for which the IC50 was 0.093 µM.

`Nc1ccccc1NC(=O)c1ccc(COc2ccc(CNC(=O)c3ccccn3)cc2)cc1`: the half-maximal inhibitory concentration (IC50) worked out at 0.2 µM.

The next test addresses Histone deacetylase 2 (Homo sapiens, UniProt Q92769). The test can be described thus: Inhibition of human recombinant HDAC2 using Ac-Leu-Gly-Lys(Ac)-AMC as substrate preincubated with enzyme for 30 mins followed by substrate addition and measured after 90 mins by fluorescence based analysis.
Settings: not given
As to `Nc1ccccc1NC(=O)c1ccc(COc2ccc(CNC(=O)[C@@H]3CCCN3)cc2)cc1`, the half-inhibitory concentration (IC50) turned out to be 0.072 µM.

For the compound `Nc1ccccc1NC(=O)c1ccc(COc2ccc(CNC(=O)[C@@H]3CCCN3Cc3ccc(F)cc3)cc2)cc1`, the concentration for half-maximal inhibition (IC50) stood at 0.196 µM.

For `Nc1ccccc1NC(=O)c1ccc(COc2ccc(CN3C(=O)CC[C@H]3CC(=O)NCc3ccccc3)cc2)cc1`, the IC50 came out at 0.217 µM.

Regarding `Nc1ccccc1NC(=O)c1ccc(COc2ccc(CNC(=O)[C@H]3CCCN3Cc3ccccc3)cc2)cc1`, the IC50 is 0.083 µM.

The next test concerns the target Histone deacetylase 3 (Homo sapiens, UniProt O15379). As to the kind of experiment: Inhibition of human recombinant HDAC3 using Ac-Leu-Gly-Lys(Ac)-AMC as substrate preincubated with enzyme for 30 mins followed by substrate addition and measured after 90 mins by fluorescence based analysis.
Settings: not given
For the compound `NCc1ccc(OCc2ccc(C(=O)Nc3ccccc3N)cc2)cc1`, the IC50 worked out at 0.052 µM.

For `Nc1ccccc1NC(=O)c1ccc(COc2ccc(CNC(=O)[C@@H]3CCCN3)cc2)cc1`, the half-inhibitory concentration (IC50) was found to be 0.061 µM.

A further test deals with T1, Protein deacetylase HDAC6 (Homo sapiens, UniProt Q9UBN7).
T1 sequence (Q9UBN7 whole entry): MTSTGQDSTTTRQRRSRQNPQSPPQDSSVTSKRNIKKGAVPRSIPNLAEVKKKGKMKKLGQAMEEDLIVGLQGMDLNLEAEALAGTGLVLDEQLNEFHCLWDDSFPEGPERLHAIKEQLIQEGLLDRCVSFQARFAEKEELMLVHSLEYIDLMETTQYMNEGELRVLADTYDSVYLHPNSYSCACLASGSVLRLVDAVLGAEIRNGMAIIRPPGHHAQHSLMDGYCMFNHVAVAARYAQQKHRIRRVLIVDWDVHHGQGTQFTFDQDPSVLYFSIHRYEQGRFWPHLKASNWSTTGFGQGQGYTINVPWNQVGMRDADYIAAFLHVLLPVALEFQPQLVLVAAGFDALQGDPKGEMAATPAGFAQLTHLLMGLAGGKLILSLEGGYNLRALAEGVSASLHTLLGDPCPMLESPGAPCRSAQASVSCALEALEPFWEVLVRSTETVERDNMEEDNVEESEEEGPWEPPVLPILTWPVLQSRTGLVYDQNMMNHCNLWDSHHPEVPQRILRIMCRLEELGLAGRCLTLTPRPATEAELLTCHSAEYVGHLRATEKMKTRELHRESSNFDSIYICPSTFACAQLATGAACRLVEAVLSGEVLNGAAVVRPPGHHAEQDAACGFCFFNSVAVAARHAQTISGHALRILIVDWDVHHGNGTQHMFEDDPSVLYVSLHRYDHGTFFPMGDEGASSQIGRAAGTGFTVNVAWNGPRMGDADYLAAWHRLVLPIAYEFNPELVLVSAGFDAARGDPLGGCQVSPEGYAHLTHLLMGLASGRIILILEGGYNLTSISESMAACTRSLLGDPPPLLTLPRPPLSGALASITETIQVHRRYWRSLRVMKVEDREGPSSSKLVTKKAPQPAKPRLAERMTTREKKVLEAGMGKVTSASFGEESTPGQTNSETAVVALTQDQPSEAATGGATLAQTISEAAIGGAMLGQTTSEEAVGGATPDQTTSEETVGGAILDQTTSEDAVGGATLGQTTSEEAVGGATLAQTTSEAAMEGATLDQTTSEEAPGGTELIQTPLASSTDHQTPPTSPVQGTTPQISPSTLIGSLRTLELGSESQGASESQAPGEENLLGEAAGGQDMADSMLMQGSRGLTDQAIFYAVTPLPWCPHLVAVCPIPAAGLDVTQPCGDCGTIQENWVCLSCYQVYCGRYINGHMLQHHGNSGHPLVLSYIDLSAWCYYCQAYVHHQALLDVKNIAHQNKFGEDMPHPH
As to the kind of experiment: Inhibition of C-terminal FLAG-tagged human recombinant full length HDAC6 expressed in baculovirus expression system using Boc-Lys(Ac)-AMC as substrate preincubated with enzyme for 15 mins followed by substrate addition and measured after 60 mins by fluorescence based analysis.
Settings: not given
Take `Nc1ccccc1NC(=O)c1ccc(COc2ccc(CNC(=O)[C@@H]3CCCN3C(=O)c3ccccc3)cc2)cc1`: the IC50 was above 10 µM.

In the case of `NCc1ccc(OCc2ccc(C(=O)Nc3ccccc3N)cc2)cc1`, the concentration for half-maximal inhibition (IC50) is above 10 µM.

In the case of `Nc1ccccc1NC(=O)c1ccc(COc2ccc(CNC(=O)[C@@H]3CCCN3)cc2)cc1`, the IC50 is above 100 µM.

As to `Nc1ccccc1NC(=O)c1ccc(COc2ccc(CNC(=O)[C@@H]3CCCN3Cc3ccc(F)cc3)cc2)cc1`, the IC50 is above 100 µM.

For `Nc1ccccc1NC(=O)c1ccc(COc2ccc(CN3C(=O)CC[C@H]3CC(=O)NCc3ccccc3)cc2)cc1`, the concentration for half-maximal inhibition (IC50) was above 100 µM.

Take `O=C(O)c1ccc(COc2ccc(CNC(=O)[C@@H]3CCCN3Cc3ccccc3)cc2)cc1`: the IC50 was above 10 µM.

For `Nc1ccccc1NC(=O)c1ccc(COc2ccc(CNC(=O)c3cc4ccccc4[nH]3)cc2)cc1`, the 50% inhibitory concentration (IC50) is above 10 µM.

For the compound `Nc1ccccc1NC(=O)c1ccc(COc2ccc(CNC(=O)[C@H]3CCCN3Cc3ccccc3)cc2)cc1`, the IC50 is above 100 µM.

As for `Nc1ccccc1NC(=O)c1ccc(COc2ccc(CNC(=O)c3ccccn3)cc2)cc1`, the IC50 was above 10 µM.

For a further test, the target named is T2, Histone deacetylase 8 (Homo sapiens, UniProt Q9BY41).
T2 sequence (Q9BY41 whole entry): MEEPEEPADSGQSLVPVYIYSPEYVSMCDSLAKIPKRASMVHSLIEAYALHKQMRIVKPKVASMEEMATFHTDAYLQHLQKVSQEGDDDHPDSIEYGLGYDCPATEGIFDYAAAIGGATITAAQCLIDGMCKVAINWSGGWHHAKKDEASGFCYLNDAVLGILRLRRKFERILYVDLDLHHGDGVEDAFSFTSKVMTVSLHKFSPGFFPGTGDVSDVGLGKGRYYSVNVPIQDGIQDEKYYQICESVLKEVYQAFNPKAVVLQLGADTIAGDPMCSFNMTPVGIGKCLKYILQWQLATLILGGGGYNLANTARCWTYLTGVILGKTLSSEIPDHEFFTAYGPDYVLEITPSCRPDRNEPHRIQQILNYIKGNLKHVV
As to the kind of experiment: Inhibition of C-terminal His-tagged human recombinant full length HDAC8 (1 to 377 residues) expressed in Sf9 cells using Ac-Leu-Gly-Lys(trifluoroAc)-AMC as substrate preincubated with enzyme for 30 mins followed by substrate addition and measured after 90 mins by fluorescence based analysis.
Settings: not given
As to `NCc1ccc(OCc2ccc(C(=O)Nc3ccccc3N)cc2)cc1`, the IC50 was above 10 µM.

With `Nc1ccccc1NC(=O)c1ccc(COc2ccc(CNC(=O)[C@@H]3CCCN3)cc2)cc1`, the IC50 was above 10 µM.

Another test deals with Histone deacetylase 4 (Homo sapiens, UniProt P56524). The test can be described thus: Inhibition of N-terminal GST-tagged/C-terminal His tagged human recombinant HDAC4 (627 to 1084 residues) expressed in baculovirus-infected Sf9 cells using Ac-Leu-Gly-Lys(trifluoroAc)-AMC as substrate preincubated with enzyme for 15 mins followed by substrate addition and measured after 60 mins by fluorescence based analysis.
Chain of Histone deacetylase 4 (P56524 whole entry, the tested form may be a part): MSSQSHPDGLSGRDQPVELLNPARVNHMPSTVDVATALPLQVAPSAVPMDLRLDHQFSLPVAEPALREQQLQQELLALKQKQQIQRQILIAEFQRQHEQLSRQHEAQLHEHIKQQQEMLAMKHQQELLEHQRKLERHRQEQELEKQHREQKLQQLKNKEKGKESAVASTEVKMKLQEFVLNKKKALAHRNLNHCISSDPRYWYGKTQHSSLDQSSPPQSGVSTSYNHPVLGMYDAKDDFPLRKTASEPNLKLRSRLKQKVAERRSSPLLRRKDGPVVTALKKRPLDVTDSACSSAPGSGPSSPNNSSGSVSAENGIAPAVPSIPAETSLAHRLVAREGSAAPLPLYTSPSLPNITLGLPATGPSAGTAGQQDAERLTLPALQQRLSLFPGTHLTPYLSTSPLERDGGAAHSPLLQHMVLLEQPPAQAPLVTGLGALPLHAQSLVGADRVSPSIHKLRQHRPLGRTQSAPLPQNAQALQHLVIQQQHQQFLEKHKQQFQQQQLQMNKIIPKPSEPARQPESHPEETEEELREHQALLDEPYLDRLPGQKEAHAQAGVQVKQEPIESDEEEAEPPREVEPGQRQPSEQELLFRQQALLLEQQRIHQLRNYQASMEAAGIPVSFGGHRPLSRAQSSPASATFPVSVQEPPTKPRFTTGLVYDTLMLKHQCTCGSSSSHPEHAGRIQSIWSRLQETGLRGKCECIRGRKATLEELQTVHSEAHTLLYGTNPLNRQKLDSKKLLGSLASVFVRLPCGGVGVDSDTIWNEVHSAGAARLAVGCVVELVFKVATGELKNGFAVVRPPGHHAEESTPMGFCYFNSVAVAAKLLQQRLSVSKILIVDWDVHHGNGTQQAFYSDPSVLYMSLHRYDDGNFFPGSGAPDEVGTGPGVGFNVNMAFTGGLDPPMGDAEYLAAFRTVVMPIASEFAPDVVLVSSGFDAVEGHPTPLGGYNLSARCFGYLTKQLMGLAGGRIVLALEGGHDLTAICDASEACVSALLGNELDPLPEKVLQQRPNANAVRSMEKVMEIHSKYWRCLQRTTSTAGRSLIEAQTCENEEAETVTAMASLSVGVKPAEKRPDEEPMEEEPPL
Settings: not given
In the case of `NCc1ccc(OCc2ccc(C(=O)Nc3ccccc3N)cc2)cc1`, the IC50 is above 100 µM.

For the compound `Nc1ccccc1NC(=O)c1ccc(COc2ccc(CNC(=O)[C@@H]3CCCN3)cc2)cc1`, the 50% inhibitory concentration (IC50) was above 100 µM.

The test system of another test is A549. As to the kind of experiment: Antiproliferative activity against human A549 cells assessed as inhibition of cell growth incubated for 72 hrs by MTT assay. Format: functional, cell-based. Conditions: A549, 72 h. On the technique in general: Tetrazolium dyes change colour on reduction, which living cells bring about.
For `Nc1ccccc1NC(=O)c1ccc(COc2ccc(CNC(=O)[C@@H]3CCCN3C(=O)c3ccccc3)cc2)cc1`, the 50% inhibitory concentration (IC50) was determined as 16 µM.

Consider `NCc1ccc(OCc2ccc(C(=O)Nc3ccccc3N)cc2)cc1`, for which the half-maximal inhibitory concentration (IC50) was above 25 µM.

Take `Nc1ccccc1NC(=O)c1ccc(COc2ccc(CNC(=O)[C@@H]3CCCN3)cc2)cc1`: the concentration for half-maximal inhibition (IC50) is 10 µM.

As for `Nc1ccccc1NC(=O)c1ccc(COc2ccc(CNC(=O)[C@@H]3CCCN3Cc3ccc(F)cc3)cc2)cc1`, the IC50 was found to be 5.1 µM.

As for `Nc1ccccc1NC(=O)c1ccc(COc2ccc(CN3C(=O)CC[C@H]3CC(=O)NCc3ccccc3)cc2)cc1`, the half-maximal inhibitory concentration (IC50) turned out to be 15 µM.

Take `O=C(O)c1ccc(COc2ccc(CNC(=O)[C@@H]3CCCN3Cc3ccccc3)cc2)cc1`: the IC50 is above 25 µM.

For the compound `Nc1ccccc1NC(=O)c1ccc(COc2ccc(CNC(=O)c3cc4ccccc4[nH]3)cc2)cc1`, the half-maximal inhibitory concentration (IC50) came to 5.2 µM.

For the compound `Nc1ccccc1NC(=O)c1ccc(COc2ccc(CNC(=O)[C@H]3CCCN3Cc3ccccc3)cc2)cc1`, the IC50 worked out at 4.7 µM.

With `Nc1ccccc1NC(=O)c1ccc(COc2ccc(CNC(=O)c3ccccn3)cc2)cc1`, the IC50 came to 6.8 µM.

Another test concerns SF-268. The test can be described thus: Antiproliferative activity against human SF-268 cells assessed as inhibition of cell growth incubated for 72 hrs by MTT assay. In kind it is functional, cell-based. The settings on record: SF-268, 72 h.
`Nc1ccccc1NC(=O)c1ccc(COc2ccc(CNC(=O)[C@@H]3CCCN3C(=O)c3ccccc3)cc2)cc1`: the half-maximal inhibitory concentration (IC50) was determined as 9.2 µM.

Regarding `NCc1ccc(OCc2ccc(C(=O)Nc3ccccc3N)cc2)cc1`, the IC50 stood at 8.5 µM.

Take `Nc1ccccc1NC(=O)c1ccc(COc2ccc(CNC(=O)[C@@H]3CCCN3)cc2)cc1`: the half-maximal inhibitory concentration (IC50) was found to be 3.3 µM.

As for `Nc1ccccc1NC(=O)c1ccc(COc2ccc(CNC(=O)[C@@H]3CCCN3Cc3ccc(F)cc3)cc2)cc1`, the concentration for half-maximal inhibition (IC50) stood at 4.8 µM.

For `Nc1ccccc1NC(=O)c1ccc(COc2ccc(CN3C(=O)CC[C@H]3CC(=O)NCc3ccccc3)cc2)cc1`, the IC50 was 7.1 µM.

In the case of `O=C(O)c1ccc(COc2ccc(CNC(=O)[C@@H]3CCCN3Cc3ccccc3)cc2)cc1`, the concentration for half-maximal inhibition (IC50) was above 25 µM.

Consider `Nc1ccccc1NC(=O)c1ccc(COc2ccc(CNC(=O)c3cc4ccccc4[nH]3)cc2)cc1`, for which the IC50 is 16.5 µM.

`Nc1ccccc1NC(=O)c1ccc(COc2ccc(CNC(=O)[C@H]3CCCN3Cc3ccccc3)cc2)cc1`: the half-inhibitory concentration (IC50) is 3.1 µM.

Consider `Nc1ccccc1NC(=O)c1ccc(COc2ccc(CNC(=O)c3ccccn3)cc2)cc1`, for which the IC50 was determined as 9.8 µM.

A word on the IC50: it is the point on the concentration scale where inhibition reaches its midpoint.
